This passage reports IC50 results from US8420675B2, “Aminotetrahydroindazoloacetic acids” (Hoffmann-La Roche Inc., priority 2008, dated 2013).

The test concerns the target T1, human CRTH2 (Homo sapiens, UniProt Q9Y5Y4).
T1 construct: expressed in transfected cells
T1 sequence (Q9Y5Y4 1-395): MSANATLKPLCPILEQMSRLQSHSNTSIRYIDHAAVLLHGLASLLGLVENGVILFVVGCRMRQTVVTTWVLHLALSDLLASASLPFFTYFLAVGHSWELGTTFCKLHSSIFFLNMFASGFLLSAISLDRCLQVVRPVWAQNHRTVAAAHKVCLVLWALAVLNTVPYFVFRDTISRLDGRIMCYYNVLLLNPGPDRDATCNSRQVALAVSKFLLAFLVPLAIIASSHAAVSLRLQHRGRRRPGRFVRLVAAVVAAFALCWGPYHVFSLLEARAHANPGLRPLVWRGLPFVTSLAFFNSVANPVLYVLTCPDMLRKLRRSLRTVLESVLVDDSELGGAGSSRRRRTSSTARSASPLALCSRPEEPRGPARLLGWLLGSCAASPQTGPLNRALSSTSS
The experiment in a line: Human CRTH2 Receptor Binding Assay (whole cell, [3H]ramatroban competition). As to conditions: CHO-K1 cells expressing human CRTH2 and G-alpha16; 20 nM [3H]ramatroban; 1 hour, room temperature. The text has this: A whole cell receptor binding assay using [^3H]ramatroban as the competing radioactive ligand was employed to evaluate the compound binding activity to human CRTH2. The radioactive ligand [^3H]ramatroban was synthesized according to Sugimoto et. al. (Eur. J. Pharmacol. 524, 30-37, 2005) to a specific activity of 42 Ci/mmol.
A cell line stably expressing human CRTH2 was established by transfecting CHO-K1 cells with two mammalian expression vectors that harbored human CRTH2 and G-alpha16 cDNAs, respectively, using FuGene® 6 transfection reagent (from Roche). Stable clones expressing CRTH2 were selected by staining each clone with BM16 (BD Pharmingen™ from BD Biosciences, a division of Becton, Dickinson and Company), which is a rat monoclonal antibody to human CRTH2. The cells were maintained as monolayer cultures in Ham's F-12 medium containing 10% fetal bovine serum, 100 units/mL penicillin, 100 μg/mL streptomycin, 2 mM glutamine, 0.5 mg/mL G418 (geneticin) for CRTH2, and 0.2 mg/mL hygromycin-B (for G-alpha 16). For whole cell receptor binding assay, the monolayer cells were rinsed once with PBS (phosphate buffered saline), dissociated using ethylenediaminetetraacetate (Versene™ EDTA Lonza Inc.), and suspended in PBS containing 10 mM MgCl2 and 0.06% BSA (bovine serum albumin) at 1.5×10^6 cells/mL.
The binding reactions (0.2 mL) were performed in 96-well plates at room temperature in PBS containing 1.5×10^5 cells, 10 mM MgCl2, 0.06% BSA, 20 nM [^3H]ramatroban, and test compound at various concentrations. After 1 hour of binding reactions, the cells were harvested on GF™/B filter microplates (microtiter plates with embedded glass fiber from PerkinElmer, Inc.) and washed 5 times with PBS using a Filtermate™ Harvester (a cell harvester that harvests and washes cells from microplates from PerkinElmer, Inc.). The radioactivities bound to the cells were determined using a microplate scintillation counter (TopCount® NXT, from PerkinElmer, Inc.) after adding 50 μL of Microscint™ 20 scintillation fluid (from PerkinElmer, Inc.) to each well of the filter plates. The radioactivity from non-specific binding was determined by replacing compound with 10 μM of 15(R)-15-methyl PGD2 (from Cayman Chemical Company) in the reaction mixtures. The radioactivity bound to the cells in the absence of compound (total binding) was determined by replacing compound with 0.25% of DMSO (dimethyl sulfoxide) in the reaction mixture. Specific binding data were obtained by subtracting the radioactivity of non-specific binding from each binding data.
The IC50 value is defined as the concentration of the tested compound that is required for 50% inhibition of total specific binding. In order to calculate the IC50 value, the percent inhibition data were determined for 7 concentrations for each compound. The percent inhibition for a compound at each concentration was calculated according to the following formula, [1-(specific binding in the presence of compound)/(total specific binding)]x100. The IC50 value was then obtained by fitting the percent inhibition data to a sigmoidal dose-response (4 parameter logistic) model in the XLfit® software Excel add-in program [from ID Business Solutions Ltd., model 205, where F(x)=(A+(B−A)/(1+((C/x)^D)))].
By IC50 is commonly meant the midpoint of a concentration-inhibition curve. A low value points to greater potency. As to `O=C(O)CCn1ncc2c1CCCC2NS(=O)(=O)c1ccc(-c2ccccc2)cc1` (single isomer, unassigned) [Example 10-30a, 3-[4-(biphenyl-4-sulfonylamino)-4,5,6,7-tetrahydro-indazol-1-yl]-propionic acid], the IC50 amounted to 0.0056 µM. This counts as single-digit nanomolar.

Consider `O=C(O)Cn1ncc2c1CCC[C@H]2NS(=O)(=O)c1ccc(Oc2ccccc2Cl)cc1` [Example 1-1a, {(R)-4-[4-(2-Chloro-phenoxy)-benzenesulfonylamino]-4,5,6,7-tetrahydro-indazol-1-yl}-acetic acid], for which the IC50 is 0.0277 µM.

`O=C(O)Cn1ncc2c1CCC[C@H]2NS(=O)(=O)c1ccc(-c2ccccc2)cc1` [Example 1-2a, [(R)-4-(Biphenyl-4-sulfonylamino)-4,5,6,7-tetrahydro-indazol-1-yl]-acetic acid] registered an IC50 of 0.0936 µM.

Turning to `O=C(O)Cn1ncc2c1CCCC2NS(=O)(=O)c1ccc(Oc2ccccc2)cc1` (stereo not shown) [Example 1-3a, [4-(4-Phenoxy-benzenesulfonylamino)-4,5,6,7-tetrahydro-indazol-1-yl]-acetic acid], the IC50 worked out at 0.199 µM. Against the preceding molecule, the IC50 is about 2.1-fold higher.

`Cc1nnc(-c2cccc(S(=O)(=O)NC3CCCc4c3cnn4CC(=O)O)c2)o1` (stereo not shown) [Example 1-4a, {4-[3-(5-Methyl-[1,3,4]oxadiazol-2-yl)-benzenesulfonylamino]-4,5,6,7-tetrahydro-indazol-1-yl}-acetic acid] came in with an IC50 of 0.244 µM.

In the case of `O=C(O)Cn1ncc2c1CCCC2NS(=O)(=O)c1cccc(Oc2ccccc2)c1` (stereo not shown) [Example 1-5a, [4-(3-Phenoxy-benzenesulfonylamino)-4,5,6,7-tetrahydro-indazol-1-yl]-acetic acid], the IC50 worked out at 0.164 µM. This IC50 and that of the molecule before are within 1.5-fold of each other.

The molecule `O=C(O)CCn1ncc2c1CCCC2NS(=O)(=O)c1ccc(-c2ccccc2)cc1` (stereo not shown) [Example 1-6a, 3-[4-(Biphenyl-4-sulfonylamino)-4,5,6,7-tetrahydro-indazol-1-yl]-propionic acid] came in with an IC50 of 0.475 µM. Against the preceding molecule, the IC50 is about 2.9-fold higher.

The molecule `O=C(O)Cn1ncc2c1CCCC2NS(=O)(=O)c1cnc(Oc2ccc(Cl)cc2)c(Br)c1` (stereo not shown) [Example 2-1a, {4-[5-Bromo-6-(4-chloro-phenoxy)-pyridine-3-sulfonylamino]-4,5,6,7-tetrahydro-indazol-1-yl}-acetic acid] yielded a concentration for half-maximal inhibition (IC50) of 0.0072 µM.

Take `O=C(O)Cn1ncc2c1CCCC2NS(=O)(=O)c1cnc(Oc2ccc(F)cc2)c(Br)c1` (stereo not shown) [Example 2-2a, {4-[5-Bromo-6-(4-fluoro-phenoxy)-pyridine-3-sulfonylamino]-4,5,6,7-tetrahydro-indazol-1-yl}-acetic acid]: the IC50 amounted to 0.0311 µM.

Molecule `O=C(O)Cn1ncc2c1CCCC2NS(=O)(=O)c1cnc(Oc2cccc(Cl)c2)c(Br)c1` (stereo not shown) [Example 2-3a, {4-[5-Bromo-6-(3-chloro-phenoxy)-pyridine-3-sulfonylamino]-4,5,6,7-tetrahydro-indazol-1-yl}-acetic acid] gave an IC50 of 0.0194 µM.

In turn, `N#Cc1ccc(Oc2ncc(S(=O)(=O)NC3CCCc4c3cnn4CC(=O)O)cc2Br)cc1` (stereo not shown) [Example 2-4a, {4-[5-Bromo-6-(4-cyano-phenoxy)-pyridine-3-sulfonylamino]-4,5,6,7-tetrahydro-indazol-1-yl}-acetic acid] displayed an IC50 of 0.0103 µM.

`CS(=O)(=O)c1ccc(Oc2ncc(S(=O)(=O)NC3CCCc4c3cnn4CC(=O)O)cc2Br)cc1` (stereo not shown) [Example 2-5a, {4-[5-Bromo-6-(4-methanesulfonyl-phenoxy)-pyridine-3-sulfonylamino]-4,5,6,7-tetrahydro-indazol-1-yl}-acetic acid] yielded an IC50 of 0.101 µM.

Take `Cc1ccc(Oc2ncc(S(=O)(=O)NC3CCCc4c3cnn4CC(=O)O)cc2Br)cc1` (stereo not shown) [Example 2-6a, [4-(5-Bromo-6-p-tolyloxy-pyridine-3-sulfonylamino)-4,5,6,7-tetrahydro-indazol-1-yl]-acetic acid]: the IC50 was determined as 0.0264 µM.

Regarding `O=C(O)Cn1ncc2c1CCCC2NS(=O)(=O)c1cnc(Oc2ccc(C(F)(F)F)cc2)c(Br)c1` (stereo not shown) [Example 2-7a, {4-[5-Bromo-6-(4-trifluoromethyl-phenoxy)-pyridine-3-sulfonylamino]-4,5,6,7-tetrahydro-indazol-1-yl}-acetic acid], the IC50 amounted to 0.393 µM.

In turn, `O=C(O)Cn1ncc2c1CCC[C@H]2NS(=O)(=O)c1cnc(Oc2ccc(Cl)cc2)c(Br)c1` [Example 2-8a, {(R)-4-[5-Bromo-6-(4-chloro-phenoxy)-pyridine-3-sulfonylamino]-4,5,6,7-tetrahydro-indazol-1-yl}-acetic acid] had an IC50 of 0.0078 µM.

`O=C(O)Cn1ncc2c1CCC[C@H]2NS(=O)(=O)c1cnc(Oc2ccccc2Cl)c(Br)c1` [Example 2-9a, {(R)-4-[5-Bromo-6-(2-chloro-phenoxy)-pyridine-3-sulfonylamino]-4,5,6,7-tetrahydro-indazol-1-yl}-acetic acid]: the IC50 was 0.0084 µM. This IC50 and that of the molecule before are within 1.5-fold of each other.

`O=C(O)Cn1ncc2c1CCCC2NS(=O)(=O)c1cnc(Oc2ccc(F)c(F)c2)c(Br)c1` (stereo not shown) [Example 2-10a, {4-[5-Bromo-6-(3,4-difluoro-phenoxy)-pyridine-3-sulfonylamino]-4,5,6,7-tetrahydro-indazol-1-yl}-acetic acid] registered an IC50 of 0.196 µM.

For the molecule `O=C(O)CCn1ncc2c1CCC[C@H]2NS(=O)(=O)c1cnc(Oc2ccccc2Cl)c(Br)c1` [Example 2-11a, 3-{(R)-4-[5-Bromo-6-(2-chloro-phenoxy)-pyridine-3-sulfonylamino]-4,5,6,7-tetrahydro-indazol-1-yl}-propionic acid], the half-inhibitory concentration (IC50) is 0.0182 µM.

In turn, `O=C(O)CCn1ncc2c1CCC[C@H]2NS(=O)(=O)c1cnc(Oc2ccc(Cl)cc2)c(Br)c1` [Example 2-12a, 3-{(R)-4-[5-Bromo-6-(4-chloro-phenoxy)-pyridine-3-sulfonylamino]-4,5,6,7-tetrahydro-indazol-1-yl}-propionic acid] gave an IC50 of 0.0303 µM.

In the case of `Cc1cc(S(=O)(=O)NC2CCCc3c2cnn3CC(=O)O)cnc1Oc1ccc(Cl)cc1` (stereo not shown) [Example 3-1a, {4-[6-(4-Chloro-phenoxy)-5-methyl-pyridine-3-sulfonylamino]-4,5,6,7-tetrahydro-indazol-1-yl}-acetic acid], the IC50 came to 0.0349 µM. This IC50 and that of the molecule before are within 1.5-fold of each other.

The molecule `O=C(O)Cn1ncc2c1CCCC2NS(=O)(=O)c1ccc(Oc2ccc(F)cc2)nc1` (stereo not shown) [Example 4-1a, {4-[6-(4-Fluoro-phenoxy)-pyridine-3-sulfonylamino]-4,5,6,7-tetrahydro-indazol-1-yl}-acetic acid] registered an IC50 of 0.158 µM.

Molecule `O=C(O)Cn1ncc2c1CCC[C@H]2NS(=O)(=O)c1ccc(Oc2ccccc2Cl)c(Cl)c1` [Example 5-1a, {(R)-4-[3-Chloro-4-[2-chloro-phenoxy)-benzenesulfonylamino]-4,5,6,7-tetrahydro-indazol-1-yl}-acetic acid] registered an IC50 of 0.0146 µM.

As to `O=C(O)Cn1ncc2c1CCCC2NS(=O)(=O)c1ccc(Oc2cccc(Cl)c2)cc1` (stereo not shown) [Example 5-2a, {4-[4-(3-Chloro-phenoxy)-benzenesulfonylamino]-4,5,6,7-tetrahydro-indazol-1-yl}-acetic acid], the IC50 worked out at 0.202 µM. This IC50 is about 14-fold higher than that of the molecule before.

In turn, `O=C(O)Cn1ncc2c1CCCC2NS(=O)(=O)c1ccc(Oc2ccc(Cl)cc2)cc1` (stereo not shown) [Example 5-3a, {4-[4-(4-Chloro-phenoxy)-benzenesulfonylamino]-4,5,6,7-tetrahydro-indazol-1-yl}-acetic acid] had an IC50 of 0.0606 µM.

Turning to `O=C(O)Cn1ncc2c1CCCC2NS(=O)(=O)c1cc(Oc2ccccc2)cc(C(F)(F)F)c1` (stereo not shown) [Example 5-4a, [4-(3-Phenoxy-5-trifluoromethyl-benzenesulfonylamino)-4,5,6,7-tetrahydro-indazol-1-yl]-acetic acid], the IC50 is 0.0359 µM. Against the preceding molecule, the IC50 is about 1.7-fold lower.
